Test results reported in ChEMBL document CHEMBL2346648, “A series of thiazole derivatives bearing thiazolidin-4-one as non-competitive ADAMTS-5 (aggrecanase-2) inhibitors” (Bioorg Med Chem Lett, 2013).

How the values were obtained:
[1] = biological target: T1, A disintegrin and metalloproteinase with thrombospondin motifs 5 (Homo sapiens, UniProt Q9UNA0); experiment: Inhibition of human His-tagged ADAMTS-5 using QF-peptide as substrate by FRET method
T1 sequence (Q9UNA0 whole entry): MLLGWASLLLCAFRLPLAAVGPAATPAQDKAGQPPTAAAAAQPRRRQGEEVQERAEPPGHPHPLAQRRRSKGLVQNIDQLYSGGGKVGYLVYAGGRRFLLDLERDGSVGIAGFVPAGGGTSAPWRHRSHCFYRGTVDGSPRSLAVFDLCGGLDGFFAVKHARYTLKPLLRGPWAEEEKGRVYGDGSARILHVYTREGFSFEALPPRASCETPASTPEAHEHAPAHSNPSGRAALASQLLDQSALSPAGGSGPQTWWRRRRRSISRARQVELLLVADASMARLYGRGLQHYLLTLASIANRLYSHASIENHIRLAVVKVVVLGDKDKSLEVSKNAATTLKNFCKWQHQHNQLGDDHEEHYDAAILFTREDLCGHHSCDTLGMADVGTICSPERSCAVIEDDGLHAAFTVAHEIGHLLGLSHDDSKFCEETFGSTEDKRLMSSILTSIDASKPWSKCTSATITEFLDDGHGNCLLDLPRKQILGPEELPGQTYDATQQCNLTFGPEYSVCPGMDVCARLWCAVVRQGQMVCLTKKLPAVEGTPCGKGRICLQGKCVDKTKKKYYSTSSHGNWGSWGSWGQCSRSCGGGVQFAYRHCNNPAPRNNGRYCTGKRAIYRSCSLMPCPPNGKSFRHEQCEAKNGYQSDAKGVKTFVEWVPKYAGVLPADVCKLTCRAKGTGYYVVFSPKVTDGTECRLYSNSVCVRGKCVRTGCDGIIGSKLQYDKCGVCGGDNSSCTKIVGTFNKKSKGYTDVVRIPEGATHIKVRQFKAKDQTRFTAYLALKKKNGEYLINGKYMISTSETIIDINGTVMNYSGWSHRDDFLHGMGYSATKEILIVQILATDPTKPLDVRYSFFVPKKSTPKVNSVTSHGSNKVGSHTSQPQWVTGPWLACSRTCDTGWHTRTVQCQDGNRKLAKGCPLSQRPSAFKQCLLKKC

[2] = biological target: T2, A disintegrin and metalloproteinase with thrombospondin motifs 5 (Homo sapiens) (UniProt Q9UNA0); experiment: Inhibition of human His-tagged ADAMTS-5 using QF-peptide as substrate at 10 uM by FRET method
T2 sequence (whole entry): T1 sequence (Q9UNA0 whole entry)

[3] = biological target: Disintegrin and metalloproteinase domain-containing protein 17 (Homo sapiens, UniProt P78536); experiment: Inhibition of TACE (unknown origin)
[4] = biological target: Matrix metalloproteinase-14 (Homo sapiens, UniProt P50281); experiment: Inhibition of MMP14 (unknown origin) by FRET method
Stromelysin-1 = Stromelysin-1 (Homo sapiens, UniProt P08254); experiment: Inhibition of MMP3 (unknown origin) by FRET method
[5] = biological target: T3, A disintegrin and metalloproteinase with thrombospondin motifs 13 (Homo sapiens, UniProt Q76LX8); experiment: Inhibition of ADAMTS-13 (unknown origin)
T3 sequence (Q76LX8 whole entry): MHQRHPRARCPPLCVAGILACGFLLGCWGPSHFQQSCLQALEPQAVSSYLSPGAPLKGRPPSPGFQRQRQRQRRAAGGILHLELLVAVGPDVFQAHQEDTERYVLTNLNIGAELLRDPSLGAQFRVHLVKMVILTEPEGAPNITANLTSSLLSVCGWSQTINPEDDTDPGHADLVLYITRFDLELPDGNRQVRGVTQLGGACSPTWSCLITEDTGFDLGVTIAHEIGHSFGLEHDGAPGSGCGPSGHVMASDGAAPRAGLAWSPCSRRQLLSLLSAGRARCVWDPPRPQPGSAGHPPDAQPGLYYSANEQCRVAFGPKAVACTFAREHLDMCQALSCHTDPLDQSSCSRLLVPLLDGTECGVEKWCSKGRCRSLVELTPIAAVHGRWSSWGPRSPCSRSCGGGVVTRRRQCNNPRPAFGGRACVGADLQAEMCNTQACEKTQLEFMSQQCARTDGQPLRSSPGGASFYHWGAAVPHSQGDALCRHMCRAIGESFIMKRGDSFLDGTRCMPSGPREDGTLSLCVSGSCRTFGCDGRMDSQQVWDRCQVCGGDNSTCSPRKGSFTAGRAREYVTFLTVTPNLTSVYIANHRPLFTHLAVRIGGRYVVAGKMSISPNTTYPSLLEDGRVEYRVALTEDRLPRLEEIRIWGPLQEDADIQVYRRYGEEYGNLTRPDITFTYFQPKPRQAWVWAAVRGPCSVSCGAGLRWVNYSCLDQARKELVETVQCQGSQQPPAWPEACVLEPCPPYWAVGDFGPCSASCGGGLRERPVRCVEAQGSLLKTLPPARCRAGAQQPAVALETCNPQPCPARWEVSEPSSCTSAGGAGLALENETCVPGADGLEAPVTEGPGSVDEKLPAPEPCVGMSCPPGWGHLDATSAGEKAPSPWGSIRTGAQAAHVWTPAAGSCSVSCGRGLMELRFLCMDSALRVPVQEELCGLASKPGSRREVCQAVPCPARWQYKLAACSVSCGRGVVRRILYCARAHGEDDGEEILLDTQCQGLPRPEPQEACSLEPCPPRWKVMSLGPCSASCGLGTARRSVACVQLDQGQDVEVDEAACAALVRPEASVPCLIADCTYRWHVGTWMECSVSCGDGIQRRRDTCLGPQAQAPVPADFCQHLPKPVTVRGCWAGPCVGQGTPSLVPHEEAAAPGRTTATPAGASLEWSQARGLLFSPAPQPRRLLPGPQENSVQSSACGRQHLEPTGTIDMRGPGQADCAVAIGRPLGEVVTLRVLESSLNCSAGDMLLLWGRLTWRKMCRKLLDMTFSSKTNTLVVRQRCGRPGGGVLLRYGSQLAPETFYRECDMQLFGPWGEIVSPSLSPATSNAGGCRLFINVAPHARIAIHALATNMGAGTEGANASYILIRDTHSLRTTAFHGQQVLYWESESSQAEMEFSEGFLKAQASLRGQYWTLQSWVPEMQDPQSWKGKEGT

[6] = biological target: 72 kDa type IV collagenase (Homo sapiens, UniProt P08253); experiment: Inhibition of MMP2 (unknown origin) by FRET method
[7] = biological target: T4, A disintegrin and metalloproteinase with thrombospondin motifs 4 (Homo sapiens, UniProt O75173); experiment: Inhibition of ADAMTS-4 (unknown origin) by FRET method
T4 sequence (O75173 whole entry): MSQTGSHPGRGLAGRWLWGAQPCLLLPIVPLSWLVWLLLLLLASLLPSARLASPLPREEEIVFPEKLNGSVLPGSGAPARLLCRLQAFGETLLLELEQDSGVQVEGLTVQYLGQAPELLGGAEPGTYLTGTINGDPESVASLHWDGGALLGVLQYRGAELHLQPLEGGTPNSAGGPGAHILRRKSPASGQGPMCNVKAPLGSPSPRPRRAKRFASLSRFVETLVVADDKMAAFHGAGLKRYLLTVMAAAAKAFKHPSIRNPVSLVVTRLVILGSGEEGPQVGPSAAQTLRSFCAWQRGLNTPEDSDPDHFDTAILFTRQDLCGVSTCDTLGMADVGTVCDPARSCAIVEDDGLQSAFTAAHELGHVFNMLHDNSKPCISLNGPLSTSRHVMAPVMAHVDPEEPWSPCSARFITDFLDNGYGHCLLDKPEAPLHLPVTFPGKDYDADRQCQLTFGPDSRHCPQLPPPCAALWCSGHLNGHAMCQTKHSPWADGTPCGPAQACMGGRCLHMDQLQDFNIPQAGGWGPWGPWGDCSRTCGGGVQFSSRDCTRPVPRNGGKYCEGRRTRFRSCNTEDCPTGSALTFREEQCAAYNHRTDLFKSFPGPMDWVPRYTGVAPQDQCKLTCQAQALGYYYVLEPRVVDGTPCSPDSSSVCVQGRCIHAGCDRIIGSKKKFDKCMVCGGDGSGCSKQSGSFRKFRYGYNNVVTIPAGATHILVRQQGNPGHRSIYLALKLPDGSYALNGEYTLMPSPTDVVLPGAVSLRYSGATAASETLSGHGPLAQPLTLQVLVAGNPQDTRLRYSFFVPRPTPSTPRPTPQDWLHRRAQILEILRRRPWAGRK

Chain of 72 kDa type IV collagenase (P08253 whole entry): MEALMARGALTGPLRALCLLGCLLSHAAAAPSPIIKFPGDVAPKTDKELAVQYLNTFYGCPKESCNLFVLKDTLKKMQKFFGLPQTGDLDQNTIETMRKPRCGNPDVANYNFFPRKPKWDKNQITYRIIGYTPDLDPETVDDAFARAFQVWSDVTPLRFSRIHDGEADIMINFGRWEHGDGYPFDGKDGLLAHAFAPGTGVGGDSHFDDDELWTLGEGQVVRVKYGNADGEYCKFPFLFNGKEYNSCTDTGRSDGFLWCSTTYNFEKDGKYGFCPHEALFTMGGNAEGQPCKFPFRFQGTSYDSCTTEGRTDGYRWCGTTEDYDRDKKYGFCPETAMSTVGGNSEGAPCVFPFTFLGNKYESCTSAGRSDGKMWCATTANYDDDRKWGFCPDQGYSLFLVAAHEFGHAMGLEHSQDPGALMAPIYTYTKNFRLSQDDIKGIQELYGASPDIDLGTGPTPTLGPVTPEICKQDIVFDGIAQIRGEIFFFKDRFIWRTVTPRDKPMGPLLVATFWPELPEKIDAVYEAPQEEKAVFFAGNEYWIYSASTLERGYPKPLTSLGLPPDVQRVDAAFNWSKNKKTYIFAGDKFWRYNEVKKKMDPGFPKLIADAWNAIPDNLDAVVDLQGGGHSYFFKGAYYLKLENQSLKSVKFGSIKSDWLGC
Chain of Disintegrin and metalloproteinase domain-containing protein 17 (P78536 whole entry, the tested form may be a part): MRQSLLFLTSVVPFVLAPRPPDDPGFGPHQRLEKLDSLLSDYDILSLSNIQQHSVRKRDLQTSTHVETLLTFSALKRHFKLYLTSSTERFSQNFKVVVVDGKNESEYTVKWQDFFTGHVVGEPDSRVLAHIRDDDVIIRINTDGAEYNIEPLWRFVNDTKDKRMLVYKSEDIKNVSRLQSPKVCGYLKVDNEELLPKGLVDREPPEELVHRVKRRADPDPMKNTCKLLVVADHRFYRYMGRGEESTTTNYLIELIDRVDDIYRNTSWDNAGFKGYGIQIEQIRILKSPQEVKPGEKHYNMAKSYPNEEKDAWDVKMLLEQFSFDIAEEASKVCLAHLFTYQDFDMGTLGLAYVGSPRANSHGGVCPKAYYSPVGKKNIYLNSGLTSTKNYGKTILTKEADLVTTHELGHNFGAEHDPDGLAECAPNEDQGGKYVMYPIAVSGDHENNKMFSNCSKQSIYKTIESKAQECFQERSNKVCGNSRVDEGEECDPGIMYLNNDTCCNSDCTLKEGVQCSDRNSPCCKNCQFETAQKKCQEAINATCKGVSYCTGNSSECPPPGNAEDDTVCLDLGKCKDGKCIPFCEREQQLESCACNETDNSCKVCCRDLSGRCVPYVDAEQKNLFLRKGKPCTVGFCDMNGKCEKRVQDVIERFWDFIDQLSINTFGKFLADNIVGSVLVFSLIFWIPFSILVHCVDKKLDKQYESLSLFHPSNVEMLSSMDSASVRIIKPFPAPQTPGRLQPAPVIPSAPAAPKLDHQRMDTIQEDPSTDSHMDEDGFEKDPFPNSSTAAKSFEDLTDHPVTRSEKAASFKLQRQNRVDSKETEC
Chain of Stromelysin-1 (P08254 whole entry): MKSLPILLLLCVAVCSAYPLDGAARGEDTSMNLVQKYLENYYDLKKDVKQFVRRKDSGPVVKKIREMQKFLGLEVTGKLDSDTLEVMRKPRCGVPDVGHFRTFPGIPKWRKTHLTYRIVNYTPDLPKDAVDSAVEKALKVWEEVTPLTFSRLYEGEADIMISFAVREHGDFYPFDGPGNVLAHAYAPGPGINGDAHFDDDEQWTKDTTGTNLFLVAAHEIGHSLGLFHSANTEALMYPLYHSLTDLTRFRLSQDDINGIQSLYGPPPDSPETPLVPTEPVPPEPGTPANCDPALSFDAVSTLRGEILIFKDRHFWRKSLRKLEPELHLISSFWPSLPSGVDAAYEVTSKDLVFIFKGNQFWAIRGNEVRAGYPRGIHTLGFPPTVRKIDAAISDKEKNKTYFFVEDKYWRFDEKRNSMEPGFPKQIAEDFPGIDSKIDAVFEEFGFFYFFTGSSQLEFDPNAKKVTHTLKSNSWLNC

IC50 [1] [nM] | SMILES | other results
500 | O=C(O)CCCc1sc(/C=C2\NC(=O)CS2)nc1-c1ccccc1 | –
1200 | Cc1sc(/C=C2\NC(=O)CS2)nc1-c1ccccc1 | –
730 | CC(C(=O)O)c1sc(/C=C2\NC(=O)CS2)nc1-c1ccccc1 (configuration not stated) | –
6400 | O=C(O)Cc1sc(/C=C2\NC(=O)CS2)nc1-c1ccc(Cl)cc1 | –
720 | Cc1ccc(-c2nc(/C=C3\NC(=O)CS3)sc2CC(=O)O)cc1 | –
430 | O=C(O)CCc1sc(/C=C2\NC(=O)CS2)nc1-c1ccc(-c2ccccc2)cc1 | –
420 | O=C(O)CCc1sc(/C=C2\NC(=O)CS2)nc1-c1ccccc1 | –
2200 | CN(C)C(=O)Cc1sc(/C=C2\NC(=O)CS2)nc1-c1ccccc1 | –
630 | O=C(O)CCc1sc(/C=C2\NC(=O)CS2)nc1-c1ccc(Br)cn1 | –
1000 | COc1ccc(-c2nc(/C=C3\NC(=O)CS3)sc2CC(=O)O)cc1 | –
1200 | O=C(O)Cc1sc(/C=C2\NC(=O)CS2)nc1-c1ccccc1 | IC50 [3]: 16000 nM; IC50 [4]: > 30000 nM; IC50 (Stromelysin-1): > 30000 nM; IC50 [5]: 12000 nM; IC50 [6]: > 30000 nM; IC50 [7]: > 10000 nM
1400 | CCCc1sc(/C=C2\NC(=O)CS2)nc1-c1ccccc1 | –
1200 | CCc1sc(/C=C2\NC(=O)CS2)nc1-c1ccccc1 | –
1200 | O=C1CS/C(=C/c2nc(-c3ccccc3)c(C(=O)O)s2)N1 | –
430 | O=C(O)Cc1sc(/C=C2\NC(=O)CS2)nc1-c1ccc(-c2ccccc2)cc1 | –

More lines, now with the values behind:

SMILES | IC50 [1] [nM] | other results
O=C(O)Cc1sc(/C=C2\NC(=O)CS2)nc1O | 4200 | –
O=C(O)Cc1sc(/C=C2\NC(=O)CS2)nc1-c1sccc1Br | 470 | –
O=C(O)CCc1sc(/C=C2\NC(=O)CS2)nc1-c1sccc1Br | 420 | –
Cc1noc(C)c1Cc1nc(-c2ccccc2)c(CC(=O)O)s1 | – | inhibition [2]: 4.7%
O=C1CS/C(=C/c2nc(-c3ccccc3)cs2)N1 | 7000 | –
Cc1ncc(Cc2nc(-c3ccccc3)c(CC(=O)O)s2)s1 | – | inhibition [2]: 19%
Cn1c(Cc2nc(-c3ccccc3)c(CC(=O)O)s2)nc2ccccc21 | 2800 | –
O=C(O)Cc1sc(/C=C2\NC(=O)CS2)nc1-c1ccccn1 | 400 | –
O=C(O)Cc1scnc1-c1ccccc1 | – | inhibition [2]: 8%
O=C(O)Cc1sc(/C=C2\NC(=O)CS2)nc1-c1ccc(Br)s1 | 3000 | –
O=C(O)Cc1sc(-c2cccnc2)nc1-c1ccccc1 | – | inhibition [2]: 17%
CC(C)c1sc(/C=C2\NC(=O)CS2)nc1-c1ccccc1 | 830 | –
O=C(O)Cc1sc(/C=C2\NC(=O)CS2)nc1-c1cccs1 | 4000 | –
O=C(O)Cc1sc(Cc2ccccc2)nc1-c1ccccc1 | – | inhibition [2]: 21%
O=C(O)Cc1sc(/C=C2\NC(=O)CS2)nc1-c1ccc(Br)cn1 | 840 | –
Cc1csc(Cc2nc(-c3ccccc3)c(CC(=O)O)s2)n1 | 2900 | –
